The text below walks through data of patent publication US20250066328A1, “PARP7 INHIBITORS” (Gilead Sciences, Inc., priority 2023, published 2025).

The assay relates to STAT1 (phosphorylated at Tyr701) in NCI-H1373 cells. Kind of assay: Phospho-STAT1 (Tyr701) LANCE Ultra TR-FRET detection assay in NCI-H1373 cells. Type of assay: cell-based. The conditions noted are these: Homo sapiens, NCI-H1373, 48 h, 48 hours incubation, induction of pSTAT1, normalized to 10 uM positive control and DMSO, 4-parameter fit, read-out: NH1373 pSTAT1 EC50. The essentials:
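NCI-H1373 cells (30,000/well) incubated 48 h at 37° C on compound, then lysed; phospho-STAT1 Tyr701 measured by sandwich TR-FRET (665/620 nm ratio). Data normalized to DMSO and a 10 uM reference inducer; EC50 from 4-parameter fit.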
(In TR-FRET formats the signal depends on donor and acceptor labels being close together.)

pEC50: −log10 of the molar value.

Turning to `C[C@@H](C[C@@H](F)CN1CCc2cc(-c3ncc(C(F)(F)F)cn3)c(F)cc2C1=O)Nc1cn[nH]c(=O)c1C(F)(F)F` [Example 132, 7-fluoro-2-[(2R,4S)-2-fluoro-4-[[6-oxo-5-(trifluoromethyl)-1H-pyridazin-4-yl]amino]pentyl]-6-[5-(trifluoromethyl)pyrimidin-2-yl]-3,4-dihydroisoquinolin-1-one], the negative-log EC50 (pEC50) (as a rule, −log10 of the EC50, conventionally taken in molar units) is 8.57.
